# ChEMBL document CHEMBL3885861, “Open TG-GATES”
# Species on record: Rattus norvegicus
# Test: Open TG-GATES - Regimen: Single
# Assay type: toxicity, organism-based, Sprague-Dawley
# Parameters: regimen Single, gender Male, age 6 weeks
# Conditions: in vivo, po, 100 mg/kg, route gavage, dose level Low; for APTT / Bas / Eos / Fbg / Hb / Ht / Lym / MCH / MCHC / MCV / Mono / Neu / PT / Plat / RBC / Ret / WBC: tissue Blood; for KIDNEY_L / KIDNEY_R / KIDNEY_TOTAL: tissue Kidney; for LIVER: tissue Liver; for A/G / ALP / ALT / AST / BUN / CRE / Ca / Cl / DBIL / GLC / IP / K / LDH / Na / PL / RALB / TBIL / TC / TG / TP / gamma-GTP: tissue Plasma
compound,measurement,setting,value
O=C(OC[C@H]1O[C@@H](OC(=O)c2cc(O)c(O)c(OC(=O)c3cc(O)c(O)c(O)c3)c2)[C@H](OC(=O)c2cc(O)c(O)c(OC(=O)c3cc(O)c(O)c(O)c3)c2)[C@@H](OC(=O)c2cc(O)c(O)c(OC(=O)c3cc(O)c(O)c(O)c3)c2)[C@@H]1OC(=O)c1cc(O)c(O)c(OC(=O)c2cc(O)c(O)c(O)c2)c1)c1cc(O)c(O)c(OC(=O)c2cc(O)c(O)c(O)c2)c1 [TANNIC ACID],TERMINAL_BW,3 h,188.9 g
same,APTT,3 h,16.1 s
same,Bas,3 h,0%
same,Eos,3 h,1.2%
same,Fbg,3 h,212.2 mg/dL
same,Hb,3 h,13 g/dL
same,Ht,3 h,38.5%
same,Lym,3 h,82%
same,MCH,3 h,22.2 pg
same,MCHC,3 h,33.8%
same,MCV,3 h,65.6 fL
same,Mono,3 h,5.8%
same,Neu,3 h,11.2%
same,PT,3 h,11.5 s
same,Plat,3 h,112.2 x10_4/uL
same,RBC,3 h,587 x10_4/ul
same,Ret,3 h,10.1%
same,WBC,3 h,96.7 x10_2/uL
same,KIDNEY_L,3 h,0.9 g
same,KIDNEY_R,3 h,0.9 g
same,KIDNEY_TOTAL,3 h,1.7 g
same,LIVER,3 h,8.6 g
same,A/G,3 h,2
same,ALP,3 h,882 IU/L
same,ALT,3 h,37.8 IU/L
same,AST,3 h,70.2 IU/L
same,BUN,3 h,15.8 mg/dL
same,CRE,3 h,0.5 mg/dL
same,Ca,3 h,10.9 mg/dL
same,Cl,3 h,105 meq/L
same,DBIL,3 h,0.018 mg/dL
same,GLC,3 h,198 mg/dL
same,IP,3 h,10.2 mg/dL
same,K,3 h,4.9 meq/L
same,LDH,3 h,75 IU/L
same,Na,3 h,139.2 meq/L
same,PL,3 h,128.8 mg/dL
same,RALB,3 h,3.5 g/dL
same,TBIL,3 h,0.5 mg/dL
same,TC,3 h,68.6 mg/dL
same,TG,3 h,47.6 mg/dL
same,TP,3 h,5.3 g/dL
same,gamma-GTP,3 h,2.2 IU/L
same,TERMINAL_BW,6 h,185 g
same,APTT,6 h,17.1 s
same,Bas,6 h,0%
same,Eos,6 h,1%
same,Fbg,6 h,212.6 mg/dL
same,Hb,6 h,12.7 g/dL
same,Ht,6 h,37.9%
same,Lym,6 h,78.4%
same,MCH,6 h,22.6 pg
same,MCHC,6 h,33.5%
same,MCV,6 h,67.3 fL
same,Mono,6 h,6.4%
same,Neu,6 h,14.6%
same,PT,6 h,12 s
same,Plat,6 h,109.6 x10_4/uL
same,RBC,6 h,564 x10_4/ul
same,Ret,6 h,10.4%
same,WBC,6 h,85.8 x10_2/uL
same,KIDNEY_L,6 h,0.9 g
same,KIDNEY_R,6 h,0.9 g
same,KIDNEY_TOTAL,6 h,1.8 g
same,LIVER,6 h,8.5 g
same,A/G,6 h,2
same,ALP,6 h,684.8 IU/L
same,ALT,6 h,38.6 IU/L
same,AST,6 h,70.4 IU/L
same,BUN,6 h,12.6 mg/dL
same,CRE,6 h,0.5 mg/dL
same,Ca,6 h,10.8 mg/dL
same,Cl,6 h,105 meq/L
same,DBIL,6 h,0.032 mg/dL
same,GLC,6 h,188.2 mg/dL
same,IP,6 h,10.4 mg/dL
same,K,6 h,4.5 meq/L
same,LDH,6 h,102.8 IU/L
same,Na,6 h,140.6 meq/L
same,PL,6 h,140.2 mg/dL
same,RALB,6 h,3.5 g/dL
same,TBIL,6 h,0.5 mg/dL
same,TC,6 h,86 mg/dL
same,TG,6 h,41.4 mg/dL
same,TP,6 h,5.3 g/dL
same,gamma-GTP,6 h,1.2 IU/L
same,TERMINAL_BW,9 h,180.9 g
same,APTT,9 h,16.4 s
same,Bas,9 h,0%
same,Eos,9 h,1%
same,Fbg,9 h,217.4 mg/dL
same,Hb,9 h,13.2 g/dL
same,Ht,9 h,39.3%
same,Lym,9 h,80.4%
same,MCH,9 h,22.3 pg
same,MCHC,9 h,33.6%
same,MCV,9 h,66.5 fL
same,Mono,9 h,6.8%
same,Neu,9 h,12%
same,PT,9 h,12 s
same,Plat,9 h,112.9 x10_4/uL
same,RBC,9 h,591.6 x10_4/ul
same,Ret,9 h,10.1%
same,WBC,9 h,105.1 x10_2/uL
same,KIDNEY_L,9 h,0.8 g
same,KIDNEY_R,9 h,0.8 g
same,KIDNEY_TOTAL,9 h,1.6 g
same,LIVER,9 h,7.2 g
same,A/G,9 h,2
same,ALP,9 h,837.8 IU/L
same,ALT,9 h,35.2 IU/L
same,AST,9 h,64.2 IU/L
same,BUN,9 h,12.6 mg/dL
same,CRE,9 h,0.4 mg/dL
same,Ca,9 h,10.3 mg/dL
same,Cl,9 h,106.4 meq/L
same,DBIL,9 h,0.072 mg/dL
same,GLC,9 h,190.2 mg/dL
same,IP,9 h,10.2 mg/dL
same,K,9 h,4.9 meq/L
same,LDH,9 h,101.4 IU/L
same,Na,9 h,137.6 meq/L
same,PL,9 h,135.2 mg/dL
same,RALB,9 h,3.6 g/dL
same,TBIL,9 h,0.5 mg/dL
same,TC,9 h,78.8 mg/dL
same,TG,9 h,24.6 mg/dL
same,TP,9 h,5.4 g/dL
same,gamma-GTP,9 h,1.6 IU/L
same,TERMINAL_BW,24 h,201.1 g
same,APTT,24 h,16.7 s
same,Bas,24 h,0%
same,Eos,24 h,1%
same,Fbg,24 h,227.8 mg/dL
same,Hb,24 h,12.8 g/dL
same,Ht,24 h,38.4%
same,Lym,24 h,78.8%
same,MCH,24 h,21.9 pg
same,MCHC,24 h,33.4%
same,MCV,24 h,65.6 fL
same,Mono,24 h,5.4%
same,Neu,24 h,14.8%
same,PT,24 h,11.7 s
same,Plat,24 h,114.5 x10_4/uL
same,RBC,24 h,585.2 x10_4/ul
same,Ret,24 h,10.1%
same,WBC,24 h,96.6 x10_2/uL
same,KIDNEY_L,24 h,0.9 g
same,KIDNEY_R,24 h,0.9 g
same,KIDNEY_TOTAL,24 h,1.8 g
same,LIVER,24 h,9.7 g
same,A/G,24 h,2
same,ALP,24 h,823.4 IU/L
same,ALT,24 h,41.2 IU/L
same,AST,24 h,63 IU/L
same,BUN,24 h,17.8 mg/dL
same,CRE,24 h,0.5 mg/dL
same,Ca,24 h,10.8 mg/dL
same,Cl,24 h,103.8 meq/L
same,DBIL,24 h,0.008 mg/dL
same,GLC,24 h,190.6 mg/dL
same,IP,24 h,8.7 mg/dL
same,K,24 h,4.5 meq/L
same,LDH,24 h,98.2 IU/L
same,Na,24 h,138 meq/L
same,PL,24 h,147.2 mg/dL
same,RALB,24 h,3.6 g/dL
same,TBIL,24 h,0.3 mg/dL
same,TC,24 h,81.4 mg/dL
same,TG,24 h,101.6 mg/dL
same,TP,24 h,5.5 g/dL
same,gamma-GTP,24 h,1 IU/L
